What was measured:
human FPT = biological target: T1, human FPT (Homo sapiens, UniProt P49354+P49356); assay: FPT pM IC50 Assay (scintillation proximity assay, biotin-CVLS and (1-3H)-FPP substrates); assay type: biochemical; details: 30 pM human FPT, 176 nM FPP, 100 nM biotin-CVLS, 37° C for 1 hour
T1 construct: made in house; host or cells: Baculovirus/Sf-9 insect cells
Description: The enzymatic reaction is performed in 50 mM Tris, 5 µM ZnCl2, 5 mM MgCl2, 0.01 % Triton X-100, 5 mM dithiolthreitol (DTT), pH 7.7 (Buffer R) at 37° C for 1 hour. The purified human FPT (> 95 % pure) was derived from a Baculovirus/Sf-9 expression system. The peptide substrate used was biotin-CVLS (SynPep Corp., Dublin, CA) and (1-^3H)-FPP (21.5 Ci/mmol) was obtained from New England Nuclear Life Science Products (Boston, MA). Compounds were initially dissolved to a final concentration of 4 mg/ml in 100 % DMSO and then to 0.25 µg/ml in 100 % DMSO. Subsequent dilutions of the compound were performed in Buffer R.
The enzymatic reaction is performed in a final volume of 100 µl. Reactions are carried out in a 96 well plate format. […] The reaction is stopped using 150 µl of the Stop Solution consisting of 1.3 mg/ml scintillation beads (strepavidin-coated scintillation proximity beads from. Amersham (Arlington Heights, IL), 250 mM EDTA, pH 8.0 and 0.5 % BSA. The radioactivity is measured after 20 minutes at room temperature.
Compounds are evaluated for their ability to inhibit the reaction by measuring the concentration-dependent percent inhibition of the reaction. […] The enzymatic activity was recorded by measuring the CPM/well using a Wallac 1204 Betaplate BS liquid scintillation counter. […]

COS Cell = COS Cell IC50 (Cell-Based Assay), procedures of WO 95/10516
Description: FPT IC50 (inhibition of farnesyl protein transferase, in vitro enzyme assay) was determined following the assay procedures described in WO 95/10516, published April 20, 1995. GGPT IC50 (inhibition of geranylgeranyl protein transferase, in vitro enzyme assay), COS Cell IC50 (Cell-Based Assay), Cell Mat Assay, and anti-tumor activity (in vivo anti-tumor studies) could be determined by the assay procedures described in WO 95/10516. The disclosure of WO 95/10516 is incorporated herein by reference thereto.

Human tumor cells = assay: Soft Agar Assay (anchorage-independent growth, colony count after MTT staining); assay type: cell-based
Description: Anchorage-independent growth is a characteristic of tumorigenic cell lines. Human tumor cells can be suspended in growth medium containing 0.3% agarose and an indicated concentration of a farnesyl transferase inhibitor. The solution can be overlayed onto growth medium solidified with 0.6% agarose containing the same concentration of farnesyl transferase inhibitor as the top layer. After the top layer is solidified, plates can be incubated for 10-16 days at 37°C under 5% CO2 to allow colony outgrowth. After incubation, the colonies can be stained by overlaying the agar with a solution of MTT (3-[4,5-dimethyl-thiazol-2-yl]-2,5-diphenyltetrazolium bromide, Thiazolyl blue) (1 mg/mL in PBS). Colonies can be counted and the IC50's can be determined.

Row | Structure (SMILES) | IC50 (human FPT) | IC50 (COS Cell) | IC50 (Human tumor cells)
1 | O=C(Cc1cc[n+]([O-])cc1)N1CCN(C2c3ccc(Cl)cc3CCc3cc(Br)c[n+]([O-])c32)CC1 (centres unmarked) [Example 7] | 440 pM | 9 to 85 nM | 25 to 183 nM
2 | NC(=O)N1CCC(CC(=O)N2CCC([C@@H]3c4c(Br)cc(Cl)cc4CCc4cc(Br)c[n+]([O-])c43)CC2)CC1 [Example 2] | – | 9 to 85 nM | 25 to 183 nM
3 | NC(=O)N1CCC(CC(=O)N2CCN([C@@H]3c4ccc(Cl)cc4CCc4cc(Br)c[n+]([O-])c43)CC2)CC1 [Example 10] | 410 pM | – | –
4 | O=C(Cc1cc[n+]([O-])cc1)N1CCC([C@@H]2c3c(Br)cc(Cl)cc3CCc3cc(Br)c[n+]([O-])c32)CC1 [Example 3] | – | 9 to 85 nM | 25 to 183 nM

Source: patent EP0988300B1, “BENZO(5,6)CYCLOHEPTA(1,2-B)PYRIDINE DERIVATIVES FOR THE INHIBITION OF FARNESYL PROTEIN TRANSFERASE” (SCHERING CORPORATION, priority 1997, dated 1998)
